# Source: patent US6720184B1, “Method of altering sphingolipid metabolism and detecting fumonisin ingestion and contamination” (Emory University, priority 1991, dated 2004)
# How the values were obtained:
# [1] = tested on: serine palmitoyltransferase; experiment: serine palmitoyltransferase in disrupted cells after treatment of hepatocytes; type: cell-based, rat; settings: hepatocytes treated with 2.5 μM
# ceramide synthase = experiment: conversion of [3H]sphingosine to [3H]ceramide by intact hepatocytes; type: cell-based, rat; settings: 1 μM for 1 h before [3H]sphingosine (FIG. 4D)
# Method: To measure the relative activity of ceramide synthase in intact hepatocytes, the cells were incubated with 1 μM fumonisin B1 for 1 h, then 1 μCi of [^3H]sphingosine was added and the cells were incubated for varying times. The [^3H]sphingosine was freshly purified because it decomposes rapidly to a material with an Rf similar to that of ceramides on TLC. The [^3H]sphingosine was diluted to 1 Ci/mmol and applied to a small silica gel column (Unisil, Clarkston, Ill.) in chloroform. The column was washed with 10-column volumes of chloroform, the [^3H]sphingosine was eluted with methanol and the purity confirmed by TLC. The [^3H]sphingosine was transferred to a small test tube, the solvent was evaporated under N2, a small volume of culture medium was added immediately, and the tube was sonicated for a few minutes using a bath-type sonicator. Aliquots of this solution were added to the cells, and at the end or the specified incubation period the cells were scraped from the dish, 25 μg of unlabelled ceramide carrier was added, and the lipids were extracted as described above. The [^3H]ceramides were separated from [^3H]sphingosine using silica gel H TLC plates developed with diethyl ether:methanol (99:1, v/v), visualized with I2 vapor, and the amount of radiolabel was determined by scintillation counting.
# serum sphingolipids [2] = experiment: free long-chain bases in sera of ponies fed fumonisin-contaminated feed; type: in vivo, pony; settings: for serum sphinganine / serum sphingosine: pony 341, 22 ppm
# Method: Materials—Corn screenings were ground in a Romer Mill (Romer Labs, Chesterfield, Mo.) and mixed thoroughly. Samples were taken from each lot and analyzed for fumonisins by high-performance liquid chromatography (HPLC) and thin-layer chromatography as is known in the art as previously described in (15). […] Using the mean fumonisin B1 level, individual rations were prepared daily by adding the corn screenings to pellets (NADC Horse Ration, Code 560, Purina Mills, St. Louis, Mo.) and molasses (Promolas Easy Mixer supreme, Pacific Molasses Co., San Francisco, Calif.) to yield the fumonisin concentrations cited in the text. In general, the ration contained 60% pellets, 10% molasses, and 30% corn screenings. The control diet consisted of pellets plus molasses.
# (§1) Feeding protocols—Clinically normal ponies of varying age and sex were conditioned on the control diet for 21 days prior to the trial. Horse 341 was a 6 year old gelding (173-193 Kg), 299 was a 12 year old mare (205-215 Kg), 164 was a 12 year old mare (206-290 Kg) and 166 was a 16 year old mare (143-164 Kg). During the conditioning period and throughout the trial, all ponies received alfalfa hay by free choice. The test groups were fed varying levels of fumonisin (15 to 44 ppm) for varying lengths of time.
# (§2) Analysis of serum long-chain bases—Blood was drawn approximately twice a week, centrifuged to obtain serum, and aliquots were frozen for analyses of free sphingosine and sphinganine by HPLC as is known in the art as described in (28). To quantitate total sphingolipids in some samples, the extracts were acid hydrolyzed before preparing the samples for HPLC.
# rat hepatocytes = experiment: hepatocyte viability (trypan blue exclusion); type: cell-based; settings: 1 μM, 4 d
# Method: Hepatocyte culture—Hepatocytes were prepared by a collagenase perfusion method, as known in the art as described in (22), from male Sprague-Dawley rats (125 to 200 g) fed a chow diet (Ralston Purina, St. Louis, Mo.) ad libitum. The hepatocytes were isolated using carefully aseptic procedures and plated in 60 mm tissue culture dishes coated with collagen for short term (<24 h) or with Matrigel for longer term (3 to 4 d) experiments. After plating for 4 h, the medium was changed to 2 ml of DMEM (with 3.7 g/L NaHCO3) containing 10 μg/ml f insulin, 6.1 g/L of penicillin, 10 g/L of streptomycin sulfate, and varying concentrations of fumonisins (added from a 1 mM solution in Delbecco's phosphate buffered saline). The cells were maintained in a tissue culture incubator at 37° C. and an atmosphere of 5% CO2; the medium was changed every 24 h.
# [3] = tested on: serine palmitoyltransferase; experiment: in vitro assay of serine palmitoyltransferase, rat liver microsomes; type: biochemical
# Method: In vitro assays of serine palmitoyltransferase and ceramide synthase. A microsomal fraction was isolated from rat liver and assayed for serine palmitoyltransferase, as is known in the art as described in (24,29), and ceramide synthase, as is known in the art as described in (30), in the presence of varying concentrations of fumonisin B1. […] The reaction was initiated by adding palmitoyl-CoA and, after incubation at 37° C. for 15 min, the products were extracted, resolved by TLC, and quantitated as described above. Background counts were subtracted using data from identical assays that omitted palmitoyl-CoA.
# serum sphingolipids [4] = experiment: long-chain bases liberated from total serum lipids by acid hydrolysis, ponies fed fumonisin; type: in vivo, pony; settings: Pony 164, feed 44 ppm
# From the text: as §1, §2
# [5] = pony #212, initially 44 ppm, by 7 days
smiles,measurement,setting,value
CCCC[C@@H](C)[C@@H](OC(=O)C[C@@H](CC(=O)O)C(=O)O)[C@H](C[C@@H](C)C[C@H](O)CCCC[C@@H](O)C[C@H](O)[C@H](C)N)OC(=O)C[C@@H](CC(=O)O)C(=O)O [fumonisin B1],inhibition of serine palmitoyltransferase in disrupted cells,[1],no inhibition
same,serine palmitoyltransferase activity in disrupted cells,[1],7.7±0.2 pmol/min per mg of cellular protein
same,[3H]sphingosine conversion to ceramides,ceramide synthase,Inhibition
same,Ratio Sa/So,"serum sphingolipids [2]; Pony #164, feed 44 ppm, day 2",0.60
same,"Sphinganine, free, serum","serum sphingolipids [2]; Pony #164, feed 44 ppm, day 2",70.2 ± 4.2 pmol/mL
same,"Sphingosine, free, serum","serum sphingolipids [2]; Pony #164, feed 44 ppm, day 2",117 ± 7 pmol/mL
same,Ratio Sa/So,"serum sphingolipids [2]; Pony #164, feed 44 ppm, day 7",1.67
same,"Sphinganine, free, serum","serum sphingolipids [2]; Pony #164, feed 44 ppm, day 7",253 ± 22 pmol/mL
same,"Sphingosine, free, serum","serum sphingolipids [2]; Pony #164, feed 44 ppm, day 7",152 ± 13 pmol/mL
same,Ratio Sa/So,"serum sphingolipids [2]; Pony #164, feed 44 ppm, day 10",1.25
same,"Sphinganine, free, serum","serum sphingolipids [2]; Pony #164, feed 44 ppm, day 10",283 ± 18 pmol/mL
same,"Sphingosine, free, serum","serum sphingolipids [2]; Pony #164, feed 44 ppm, day 10",226 ± 20 pmol/mL
same,Ratio Sa/So,"serum sphingolipids [2]; Pony #166, feed 44 ppm, day 2",0.87
same,"Sphinganine, free, serum","serum sphingolipids [2]; Pony #166, feed 44 ppm, day 2",37.2 ± 0.2 pmol/mL
same,"Sphingosine, free, serum","serum sphingolipids [2]; Pony #166, feed 44 ppm, day 2",43 ± 6 pmol/mL
same,Ratio Sa/So,"serum sphingolipids [2]; Pony #166, feed 44 ppm, day 7",0.95
same,"Sphinganine, free, serum","serum sphingolipids [2]; Pony #166, feed 44 ppm, day 7",62 ± 8 pmol/mL
same,"Sphingosine, free, serum","serum sphingolipids [2]; Pony #166, feed 44 ppm, day 7",66 ± 16 pmol/mL
same,Ratio Sa/So,"serum sphingolipids [2]; Pony #166, feed 44 ppm, day 10",1.92
same,"Sphinganine, free, serum","serum sphingolipids [2]; Pony #166, feed 44 ppm, day 10",179 ± 8 pmol/mL
same,"Sphingosine, free, serum","serum sphingolipids [2]; Pony #166, feed 44 ppm, day 10",92 ± 4 pmol/mL
same,Ratio Sa/So,"serum sphingolipids [2]; Pony #166, feed 44 ppm, day 13",1.72
same,"Sphinganine, free, serum","serum sphingolipids [2]; Pony #166, feed 44 ppm, day 13",174 ± 18 pmol/mL
same,"Sphingosine, free, serum","serum sphingolipids [2]; Pony #166, feed 44 ppm, day 13",100 ± 8 pmol/mL
same,increase in serum sphinganine versus level immediately prior to feeding,"serum sphingolipids [2]; pony 164, 44 ppm, day 2",6 fold
same,ratio of sphinganine to sphingosine versus pre-feeding,"serum sphingolipids [2]; pony 164, 44 ppm, day 2",doubled
same,increase in serum sphinganine versus initial level,"serum sphingolipids [2]; pony 164, 44 ppm, day 7",22 fold
same,serum sphingosine versus initial level,"serum sphingolipids [2]; pony 164, 44 ppm, day 7",3.6 fold
same,increase in serum sphinganine,"serum sphingolipids [2]; pony 166, 44 ppm, day 2",2.7 fold
same,elevation in serum sphinganine,"serum sphingolipids [2]; pony 166, 44 ppm, day 10",13 fold
same,elevation in serum sphingosine,"serum sphingolipids [2]; pony 166, 44 ppm, day 10",2 fold
same,serum sphinganine,serum sphingolipids [2]; day 231,256 pmol/mL
same,serum sphingosine,serum sphingolipids [2]; day 231,163 pmol/mL
same,serum sphinganine,serum sphingolipids [2]; day 235,532 pmol/mL
same,serum sphingosine,serum sphingolipids [2]; day 235,418 pmol/mL
same,sphinganine to sphingosine ratio,"serum sphingolipids [2]; pony 341, reintroduction of 22 ppm on day 182",> 1.5
same,further increase of serum sphingosine versus day 2,serum sphingolipids [2]; [5],2 fold
same,serum sphinganine versus level at day 2,serum sphingolipids [2]; [5],6.7 fold
same,sphinganine exceeding level of sphingosine,serum sphingolipids [2]; [5],1.9 fold
same,serum sphingosine level,"serum sphingolipids [2]; pony #212, initially 44 ppm, within 2 days",147 ± 5 pmol
same,ratio of sphinganine to sphingosine,"serum sphingolipids [2]; pony #341, 15 ppm, first 130 days",fairly consistent elevation over the initial value
same,number of viable cells,rat hepatocytes,no decrease
same,effect on activity of serine palmitoyltransferase in vitro,[3]; 25 μM,did not reduce
same,activity of serine palmitoyltransferase in vitro,[3]; in the presence of 25 μM,88±3 pmol 3-ketosphinganine formed/min/mg of microsomal protein
same,Sphinganine Total (acid hydrolysis of serum lipids),serum sphingolipids [4]; day 2,169 ± 30 pmol/mL
same,Sphinganine Total (−free),serum sphingolipids [4]; day 2,99 pmol/mL
same,Sphingosine Total (acid hydrolysis of serum lipids),serum sphingolipids [4]; day 2,621 ± 99 pmol/mL
same,Sphingosine Total (−free),serum sphingolipids [4]; day 2,504 pmol/mL
same,Sphinganine Total (acid hydrolysis of serum lipids),serum sphingolipids [4]; day 7,156 pmol/mL
same,Sphinganine Total (−free),serum sphingolipids [4]; day 7,0 pmol/mL
same,Sphingosine Total (acid hydrolysis of serum lipids),serum sphingolipids [4]; day 7,254 ± 32 pmol/mL
